Source: publication PMC5025885, “Identification of Doxorubicin as an Inhibitor of the IRE1α-XBP1 Axis of the Unfolded Protein Response” (Scientific Reports, 2016)

Biological target: T1, IRE1α (Homo sapiens, UniProt O75460)
T1 construct: gene ERN1
Experiment: cell-free in vitro IRE1α RNase assay on XBP1 and BLOC1S1 RNA substrates
Type: biochemical

T1 sequence (O75460 19-977): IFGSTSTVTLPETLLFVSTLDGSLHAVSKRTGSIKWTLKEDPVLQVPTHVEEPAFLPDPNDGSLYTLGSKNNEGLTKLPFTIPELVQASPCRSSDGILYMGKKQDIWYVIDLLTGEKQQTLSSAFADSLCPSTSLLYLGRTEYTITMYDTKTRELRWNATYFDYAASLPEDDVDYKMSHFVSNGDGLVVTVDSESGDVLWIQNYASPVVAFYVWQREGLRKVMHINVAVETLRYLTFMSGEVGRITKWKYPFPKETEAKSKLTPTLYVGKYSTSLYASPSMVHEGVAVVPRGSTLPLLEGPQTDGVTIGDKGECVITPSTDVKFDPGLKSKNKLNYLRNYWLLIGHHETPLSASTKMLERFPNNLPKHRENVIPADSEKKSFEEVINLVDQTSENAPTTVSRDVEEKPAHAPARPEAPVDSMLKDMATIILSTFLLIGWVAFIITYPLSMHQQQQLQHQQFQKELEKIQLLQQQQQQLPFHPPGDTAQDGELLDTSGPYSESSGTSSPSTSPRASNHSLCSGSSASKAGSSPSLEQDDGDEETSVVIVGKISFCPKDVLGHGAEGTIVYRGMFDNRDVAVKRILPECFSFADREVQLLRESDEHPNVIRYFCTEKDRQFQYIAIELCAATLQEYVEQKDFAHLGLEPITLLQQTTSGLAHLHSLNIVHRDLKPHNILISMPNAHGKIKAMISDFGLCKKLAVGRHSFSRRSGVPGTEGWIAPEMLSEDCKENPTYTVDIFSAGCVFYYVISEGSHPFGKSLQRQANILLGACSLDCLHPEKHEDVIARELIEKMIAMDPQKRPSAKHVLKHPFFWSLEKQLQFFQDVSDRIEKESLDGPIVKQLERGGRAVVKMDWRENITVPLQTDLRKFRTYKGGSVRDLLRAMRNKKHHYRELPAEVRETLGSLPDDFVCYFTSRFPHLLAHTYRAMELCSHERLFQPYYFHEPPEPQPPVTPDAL

COc1cccc2c1C(=O)c1c(O)c3c(c(O)c1C2=O)C[C@@](O)(C(=O)CO)C[C@@H]3O[C@H]1C[C@H](N)[C@H](O)[C@H](C)O1 [doxorubicin]
IC50: ~20 µM
